Source: ChEMBL document CHEMBL4689842, “EUbOPEN Chemogenomics Library wave 1” (2021)

Columns and labels:
[1] = system: HEK-293T; test: Incucyte cell viability with HEK293T; type: toxicity, cell-based; details: human, 10 µM, compound concentration 10 uM
[2] = system: U2OS; test: Incucyte cell viability with U2OS; type: toxicity, cell-based; details: human, 10 µM, compound concentration 10 uM
[3] = 6 h, replicate number 1, timepoint 6 hours
[4] = 12 h, replicate number 1, timepoint 12 hours
[5] = 18 h, replicate number 1, timepoint 18 hours
[6] = 24 h, replicate number 1, timepoint 24 hours

Measured: Growth Rate
Further: filed as whole numbers so only -1 and 0 and 1 occur.

COc1cc(N2CCC(N(C)C)CC2)ccc1Nc1ncc(Cl)c(Nc2ccccc2P(C)(C)=O)n1
0: [1]; [3] | [1]; [4] | [1]; [5] | [1]; [6] | [2]; 0 h, replicate number 1, timepoint 0 hours | [2]; [3] | [2]; [4] | [2]; [5] | [2]; [6]
